The values below come from patent publication US20230017712A1, “SUSTAINED RELEASE DRUG DELIVERY DEVICE” (OAK CREST INSTITUTE OF SCIENCE, priority 2019, published 2023).

Each structure is given as a SMILES string. Read-outs that look alike come from different tables or passages of the source.

For series [1] the following is noted: 600 mg every 8 weeks, intramuscular; cited from earlier work.
In series [2] the test system is HIV. As to conditions: from non-human primate efficacy studies; cited from earlier work.
For series [3], the system named is HIV. Particulars: target 50 fmol TFV-DP per million PBMCs; cited from earlier work.
For series [4] the following is noted: kernel 70% TAF / 30% triethyl citrate. The method, then: For both implant types, kernels consisted of 70% TAF and 30% triethyl citrate (w/w). Skins used custom tube extrusions of polyurethane [Pellethane® 2363-55DE (Lubrizol, Inc.); 25 mm length, 2.2 mm I.D., 0.13 mm wall thickness] and silicone [MED-4765 (Nusil, Inc.); 25 mm length, 2.1 mm I.D., 0.13 mm wall thickness]. The implant ends were sealed with MEDS-4213 (Nusil, Inc.) silicone adhesive. In vitro release studies were carried out in 100 mL of release media (0.5% solutol HS 15 in 1×PBS) at 37° C. in an orbital shaking incubator at 125 RPM. Media was changed as required to keep TAF concentration at least 50-fold below saturation to maintain sink conditions.

For series [5] the following is noted: TAF powder, no excipients, PBS, 37° C. The method, then: Segments (25 mm long) of the ePTFE tubes listed in TABLE 1 were cut, and approximately 3 mm of each end of the tube were prepared for sealing using FluoroEtch primer (Action Technologies, Pittston, Pa.) according to manufactures instructions. The tubes were then filled with tenofovir alafenamide (TAF) powder. No other excipients were used. The mass of TAF per implant varied between 20 and 70 mg depending on the experiment. The filled implants were sealed at both ends by placing a drop of Permabond 105 cyanoacrylate adhesive (Permabond Engineering Adhesives, Pottstown, Pa., USA) inside each end of the tube and crimping the end closed for 30 sec to allow the adhesive to cure and form a tight seal. Implants were kept at room temperature (ca. 23° C.) for 24 hours to allow the adhesive bond to reach full strength. The TAF in vitro release kinetics from the loaded implants was investigated by immersing the device in a solution consisting of phosphate buffered saline (PBS, 1×, 100 mL) containing sodium azide (0.01% w/v) at 37° C. with orbital shaking at 125 RPM for 30 days. The concentration of TAF in the release media was measured by UV-vis absorption spectroscopy (λmax 262 nm).

In series [6] the test system is HIV. As to conditions: cited from earlier work.
How the values of series [7] were obtained: The concentration of TAF in the release media was measured by UV-vis absorption spectroscopy (λmax 262 nm).
The source holds these as a separate data set.
The conditions of series [8]: monoolein (MYVEROL 18-92K) paste, FIG. 30B. The method, then: In vitro release studies were carried out in 100 mL of release media (0.1% solutol HS 15 in 1×PBS) at 37° C. in an orbital shaking incubator at 125 RPM. Media was changed as required to keep TAF concentration at least 50-fold below saturation to maintain sink conditions.
For series [9] the following is noted: paste 50% TAF / 50% PEG 400. How it is done: Implants were fabricated using an ePTFE tubing skin (40 mm length, 2.0 mm I.D., 0.18 mm wall thickness) and a paste kernel composed of 50% TAF and 50% PEG 400 (w/w); the tube ends were sealed. In vitro release studies were carried out in 100 mL of release media (0.1% solutol HS 15 in 1×PBS) at 37° C. in an orbital shaking incubator at 125 RPM. Media was changed as required to keep TAF concentration at least 50-fold below saturation to maintain sink conditions.

Regarding `C[C@H]1CO[C@@H]2Cn3cc(C(=O)NCc4ccc(F)cc4F)c(=O)c(O)c3C(=O)N12` [CAB, Cabotegravir], in series [1], the “participants with trough concentrations above 1× PA-IC90” value is no less than 95% and the “participants with trough concentrations above 4× PA-IC90” value is listed as no less than 80%. Also, the “steady state plasma concentration target, four times the protein adjusted IC90 (PA-IC90)” value in the series with HIV [2] is 0.66 mg/L.

On to `CC(C)OC(=O)[C@H](C)N[P@](=O)(CO[C@H](C)Cn1cnc2c(N)ncnc21)Oc1ccccc1` [TAF, Tenofovir alafenamide], for which, in the series with HIV [3], the “linear subcutaneous release rate leading to protective TFV-DP PBMC concentrations” value is 0.5 mg/day. The figures for the “release rate, linear fit days 20-160” value in series [4] (polyurethane skin (Pellethane 2363-55DE)) and in [4] (silicone skin (MED-4765)) were 0.079 mg/day and 0.035 mg/day, respectively. The “daily release rate (slope of linear regression, best fit value±SE)” value in series [5] (ePTFE tube density 0.34 g cm^−3) was 1.22 ± 0.023 mg/day; in series [5] (ePTFE tube density 0.47 g cm^−3), 0.40 ± 0.0087 mg/day; in [5] (ePTFE tube density 0.84 g cm^−3), 0.58 ± 0.0089 mg/day; in [5] (ePTFE tube density 1.13 g cm^−3), 0.12 ± 0.0037 mg/day. The “release rate that could be protective” value with HIV [6] was “ca. 0.3 mg d^−1”. Besides, in [7] (PDMS sponges coated with DL-PLA, L-PLA or PCL), the “release behaviour of coated sponges” value was “controlled and tuned over 15 d”. Moreover, the “time for drug release from TAF-impregnated sponges” value in [7] (no polymer coating applied) was “under 1 d”. For the same compound, the “TAF delivered linearly over 80 days” value (blended with PEG 400) is on record as “ca. 5 mg”. The “TAF delivered from the implants over the first month” value (blended with TEC) is listed as 60 mg. Also, the “TAF delivered in less than the first day” value (blended with TEC) came out at 5 mg. For the same compound, the “slope (release rate), simple linear regression” value (paste TAF 77% w/w with PEG 400 23% w/w, ePTFE 0.84 g cm^−3, 40 mm implant) is 54.4 µg/day. The “effect of monoolein paste on release kinetics through ePTFE tubes relative to other hydrophobic oils” value in series [8] is “increasing the rate of drug release”. For the same compound, the TAF release rate amounted to 0.51 mg/day in [9] (ePTFE density 0.47 g cm^−3) and 0.065 mg/day in series [9] (ePTFE density 0.84 g cm^−3).
